Data published in patent US20210252032A1, “DRUGS FOR GRP78 CELL SURFACE TRANSLOCATION AND PAR-4 SECRETION” (University of Kentucky Research Foundation, priority 2020, published 2021).
“Also recorded” adds a separate entry of the source. Blank lines part the entries; values can stand above or below the compound they belong to.

Assays:
[1] = test system: LLC1-derived lung tumor nodules; conditions: CQ in conjunction with CZT, relative to CZT or CQ administered separately; cited from earlier work
[2] = test system: p53-deficient KP7B lung tumor cells; assay: GRP78 cell surface expression in KP7B lung tumor cells (FIG. 1); format: cell-based
Excerpt: (§1) To maximize the apoptotic effect of secreted Par-4 on lung tumors, the second active agent is effective to elevate GRP78 on the surface of cancer cells and thereby complements the apoptotic action of secreted Par-4. […] Approximately 5% of patients with non-small cell lung cancer (NSCLC) have tumors that contain an inversion in chromosome 2 that juxtaposes the 5′ end of the echinoderm microtubule-associated protein-like 4 (EML4) gene with the 3′ end of the ALK gene. This juxtaposition results in the fusion oncogene called EML4-ALK. ALK+ tumors are highly sensitive to therapy with ALKtargeted inhibitors. […] On the other hand, phosphorylation of SRC at tyrosine 530 (Y530) by C-terminal SRC kinase (Csk) and Csk homologous kinase results in inactivation of SRC.

[3] = test system: normal lung fibroblast HEL cells; assay: GRP78 cell surface expression in normal HEL cells (FIG. 1); format: cell-based
Excerpt: as §1

epithelial BEAS2B cells = assay: GRP78 cell surface expression in normal BEAS2B cells (FIG. 1); format: cell-based
Excerpt: as §1

cancer cells = assay: Cell surface expression of GRP78 in cancer cells (FIG. 1 legend); format: cell-based
lung cancer cells [4] = conditions: previous studies (background); cited from earlier work
lung cancer cells [5] = assay: GRP78 cell surface translocation in lung cancer cells (FIG. 2); format: cell-based; conditions: nanomolar concentrations
Excerpt: as §1

[6] = test system: tyrosine-protein kinase SRC; assay: SRC activation (FIG. 3); format: cell-based; conditions: lung cancer cells
Excerpt: Dephosphorylation of Y530 by phosphatases results in autophosphorylation of SRC at Y419, leading to activation. SRC activation triggers a signaling cascade that prevents retrograde trafficking of proteins from the Golgi to the ER and promotes GRP78 translocation from the Golgi to the cell surface.

normal cells = assay: Par-4 secretion from normal cells; format: cell-based; conditions: levels relative to those achieved previously with chloroquine

Compound: CCN(CC)CCCC(C)Nc1ccnc2cc(Cl)ccc12 (stereo not drawn) [CQ, chloroquine]
- inhibition of LLC1-derived lung tumor nodules [1]: significantly greater inhibition

Compound: C[C@@H](Oc1cc(-c2cnn(C3CCNCC3)c2)cnc1N)c1c(Cl)ccc(F)c1Cl [CZT, Crizotinib]
- Par-4 receptor GRP78 on the cell surface [2]: elevated
- Par-4 receptor GRP78 on the cell surface [3]: not
- Par-4 receptor GRP78 on the cell surface (epithelial BEAS2B cells): not
- cell surface expression of GRP78 in cancer cells (cancer cells): induces
- Par-4 receptor GRP78 levels on lung cancer cells (lung cancer cells [4]): inducer

Compound: COCCn1c2c([n+](Cc3cnccn3)c1C)C(=O)c1ccccc1C2=O [YM155]
- GRP78 cell surface translocation (lung cancer cells [5]): induce cell surface expression of GRP78; also recorded: induced GRP78 cell surface translocation

- activation of SRC [6]: cause the activation of SRC
Compound: CCc1cc2c(cc1N1CCC(N3CCOCC3)CC1)C(C)(C)c1[nH]c3cc(C#N)ccc3c1C2=O [alectinib]

Compound: COc1cc(Nc2ncc3c(n2)-c2ccc(Cl)cc2C(c2c(F)cccc2OC)=NC3)ccc1C(=O)O [alisertib]
- GRP78 cell surface translocation (lung cancer cells [5]): induce cell surface expression of GRP78; also recorded: induced GRP78 cell surface translocation

Compound: COc1cccc2c1C(=O)c1c(O)c3c(c(O)c1C2=O)C[C@@](O)(C(=O)CO)C[C@@H]3O[C@H]1C[C@H](N)[C@H](O)[C@H](C)O1 [doxorubicin]
- Par-4 secretion from normal cells (normal cells): comparable to, or higher than

Compound: COc1cc([C@@H]2c3cc4c(cc3[C@@H](O[C@@H]3O[C@@H]5CO[C@@H](C)O[C@H]5[C@H](O)[C@H]3O)[C@H]3COC(=O)[C@H]23)OCO4)cc(OC)c1O [etoposide]
- Par-4 secretion from normal cells (normal cells): comparable to, or higher than

Compound: CCc1c2c(nc3ccc(OC(=O)N4CCC(N5CCCCC5)CC4)cc13)-c1cc3c(c(=O)n1C2)COC(=O)[C@]3(O)CC [irinotecan]
- Par-4 secretion from normal cells (normal cells): comparable to, or higher than
